The text below walks through data of PMC10455802, “A New Mild Method for Synthesis of Marine Alkaloid Fascaplysin and Its Therapeutically Promising Derivatives” (Marine Drugs, 2023).

Bounds are passed on as bounds.

The test system of data set [1] is 22Rv1 cells (human prostate cancer). Description: MTT assay, 22Rv1. It is filed as cell-based. As to conditions: 22Rv1, 48 h, mean ± SD. An excerpt:
(§1) To investigate the effect of the tert-butyl group on anticancer activity and selectivity, we evaluated the cytotoxic activity of unsubstituted fascaplysin (1) and 6-tert-butylfascaplysin (4) in various cancer and non-cancer cell lines using the well-established MTT method (Table 4). The effects on the human prostate cancer cells PC3 and DU145 (hormone-independent cells), 22Rv1 (partially hormone-independent cells), and LNCaP (hormone-sensitive cells), as well as on the normal (non-cancerous) human cells PNT2, MRC-9, and HEK293, were investigated. The mean cytotoxicity of compound 4 towards either cancerous or non-cancerous cells decreased by ~2-fold compared to that of fascaplysin (1).
(§2) Cell lines PC-3, DU145, 22Rv1, and LNCaP (human prostate cancer), as well as PNT2 (human prostate non-cancer), were purchased from ATCC (Manassas, VA, USA). Human embryonic kidney cells HEK 293T and human fibroblasts MRC-9 cell lines were purchased from ECACC (Salisbury, UK). […] The cells were cultured at 37 °C as monolayers in a humidified atmosphere of 5% CO2. […]
(§3) The cytotoxic activity of the synthesized compounds was examined using an MTT assay, which was performed as previously reported. […] The absorbance of the DMSO solutions was measured using a TECAN Infinite F200PRO reader (Männedorf, Switzerland). IC50 were calculated with the GraphPad Prism v.9.1.1 (San Diego, CA, USA).

In data set [2] the test system is MRC-9 cells (human fibroblasts). Description: MTT assay, MRC-9. The format is cell-based. The note with it: MRC9, MRC-9, 48 h, mean ± SD.
Source text: as §1, §2, §3

The subject of data set [3] is human prostate cancer cells PC-3, 22Rv1, DU145, LNCaP. Description: MTT assay, cancer cells (average). The format is cell-based. As to conditions: mean of PC-3, 22Rv1, DU145, LNCaP.
Source text: as §1, §2, §3

Data set [4] has as its system DU145 cells (human prostate cancer). Kind of data set: MTT assay, DU145. As to conditions: DU-145, DU145, 48 h, mean ± SD. The format is cell-based.
Source text: as §1, §2, §3
A general note: Formazan colour is commonly taken as a measure of viable cells.

Data set [5] concerns PNT2 cells (human prostate non-cancer). Kind of data set: MTT assay, PNT2. It is filed as cell-based. As to conditions: PNT2, 48 h, mean ± SD.
Source text: as §1, §2, §3

In data set [6] the test system is normal (non-cancerous) human cells PNT2, MRC-9, HEK293. Description: MTT assay, non-cancer cells (average). The format is cell-based. As to conditions: mean of PNT2, MRC-9, HEK293.
Source text: as §1, §2, §3

The test system of data set [7] is LNCaP cells (human prostate cancer). Kind of data set: MTT assay, LNCaP. It is filed as cell-based. As to conditions: 48 h, mean ± SD.
Source text: as §1, §2, §3

Data set [8] concerns PC-3 cells (human prostate cancer). Description: MTT assay, PC-3. The format is cell-based. The note with it: PC-3, 48 h, mean ± SD.
Source text: as §1, §2, §3

The subject of data set [9] is HEK293 cells (human embryonic kidney). Description: MTT assay, HEK293. The format is cell-based. As to conditions: HEK293, 48 h, mean ± SD.
Source text: as §1, §2, §3

The subject of data set [10] is human prostate cancer cells and normal (non-cancerous) human cells. Description: MTT assay, cancer and non-cancer cell lines together (selectivity, overall cytotoxicity). The format is cell-based.
Source text: as §1
Cell lines PC-3, DU145, 22Rv1, and LNCaP (human prostate cancer), as well as PNT2 (human prostate non-cancer), were purchased from ATCC (Manassas, VA, USA). Human embryonic kidney cells HEK 293T and human fibroblasts MRC-9 cell lines were purchased from ECACC (Salisbury, UK). […] The cells were cultured at 37 °C as monolayers in a humidified atmosphere of 5% CO2. The culture mediums used for cultivation and experiments: for PNT2, LNCaP, 22Rv1, PC-3, and DU145 cells—RPMI Glutamax^TM-I medium (gibco® Life Technologies^TM, Paisley, UK), supplemented with 10% FBS (gibco® Life Technologies^TM) and 1% penicillin/streptomycin (Invitrogen, Waltham, MA, USA); for MRC-9 and HEK 293 cells—DMEM GlutamaxTM-I medium (gibco® Life Technologies^TM), supplemented with 10% FBS and 1% penicillin/streptomycin.
The cytotoxic activity of the synthesized compounds was examined using an MTT assay, which was performed as previously reported. In brief, the cells were seeded in 96-well plates (6000 cells/well) and incubated overnight. The medium was replaced with fresh medium containing the tested drugs, and the cells were incubated for an additional 48 h. […] The absorbance of the DMSO solutions was measured using a TECAN Infinite F200PRO reader (Männedorf, Switzerland). IC50 were calculated with the GraphPad Prism v.9.1.1 (San Diego, CA, USA).

The test system of data set [11] is double-stranded calf thymus DNA. Kind of data set: Thiazole orange displacement (DNA intercalation assay). The note with it: compared to fascaplysin (1). It is filed as binding. The method, then: As the intercalation into DNA is considered an important component of the biological mechanism of action of fascaplysin, we evaluated and compared this activity for the synthesized 6-tert-butylfascaplysin (4) and unsubstituted fascaplysin (1). The drug–DNA complex formation was assessed by a fluorescent intercalator displacement assay based on the detachment of the thiazole orange (TO) intercalating agent from the DNA duplex by the tested compounds. The half-maximal concentrations for the effective displacement of TO from the DNA complex were calculated and are presented in Figure 3. In this experiment, the well-established DNA-binding compound, propidium iodide (PI), was used as a positive control.
A thiazole displacement assay was performed to measure the DNA intercalation activity. A mixture, containing 1 μM of double-stranded calf thymus DNA (recalculated as a concentration of base pairs) and 2 μM of thiazole orange (TO) staining agent dissolved in H2O, was used. The fascaplysins were added at concentrations of 0.39–25 μM. The DMSO concentration in the samples was not more than 0.02%. […] TO fluorescence was measured 7 min post-incubation at room temperature using a multimodal plate reader TECAN Spark (Männedorf, Switzerland) at the excitation λ = 480 nm. Fluorescence was recorded at λ = 530 nm with the bandwidth 10 nm. […]

Data set [12] is classed as physicochemical. The method, then: (§4) It was proposed based on the HRMS data, and its obtainment can be explained by the tendency towards oxidation of the fragment of p-hydroxyaminophenol of compound 26 (Scheme 6).
Method A. Freshly distilled BF3·OEt2 (0.02 mL, […]) in 2 mL of dry acetonitrile was slowly added to a stirred solution of 3 (5 mg, 0.01 mmol) and anhydrous NaI (2 mg, […]) in 5 mL of dry acetonitrile at 0 °C for 10–15 min. The mixture was stirred at 0 °C for 2 h and then for another 8 h at room temperature. The reaction was monitored by TLC. The formation of a rapidly oxidizing compound, presumably compound 27, with by-products was observed.
Method B. To 5 mg of 9-benzyloxyfascaplysin (0.01 mmol) in 5 mL of ethanol in a 10 mL flat-bottom flask, a catalytic amount of 10% palladium on carbon was added; this was sealed with a septum and left to stir under a hydrogen atmosphere on a magnetic stirrer at room temperature for 16 h. The reaction mixture changed color to green after 15 min. The progress of the reaction was monitored by TLC. The formation of a rapidly oxidizing compound, presumably compound 27, with by-products was observed.

Data set [13] in a line: Solubility observation of debenzylation product. It is filed as physicochemical. The note with it: product of benzyl removal from 3, presumably quinoid compound.
Source text: as §4

With `O=C1c2ccccc2-[n+]2ccc3c([nH]c4ccccc43)c21` [Compound 1, fascaplysin], the IC50 (commonly the concentration that gives 50% inhibition) in [1] was 242 nM; in data set [2] it was 890 ± 46 nM; in data set [3] it was 554 nM; in data set [4] it was 798 ± 54 nM; in [5] it was 457 ± 75 nM; in data set [6] it was 602 nM. The IC50 was found to be 409 ± 20 nM in data set [7], 766 ± 126 nM in [8] and 458 ± 190 nM in data set [9].

With `CC(C)(C)c1cc2c([nH]c3ccccc32)c2[n+]1-c1ccccc1C2=O` [Compound 4, 6-tert-butylfascaplysin], the IC50 was 580 ± 73 nM in data set [1]; 1370 ± 424 nM in data set [2]; 1190 nM in data set [3]; 1730 ± 172 nM in data set [4]; 1820 ± 448 nM in data set [5]; 1180 nM in [6]. For the same compound, the concentration for half-maximal inhibition (IC50) in [7] is 1330 ± 240 nM; in data set [8], 1100 ± 76 nM; in data set [10] (Homo sapiens, all tested cancer and non-cancer cell lines, read-out: IC50 in either cell line) it was no more than 2000 nM; in data set [9], 348 ± 90 nM. The “Selectivity index (SI)” value in [10] (SI = mean [IC50 non-cancer cells]/mean [IC50 cancer cells]) came out at 0.99. For the same compound, in data set [10] (towards either cancerous or non-cancerous cells), the “fold decrease of mean cytotoxicity compared to fascaplysin (1)” value is listed as ~ 2 fold. In data set [11], the “fold less effective at displacing TO from the fluorescent complex with DNA than 1” value came out at 7 fold.

Consider `O=C1c2ccccc2-[n+]2ccc3c([nH]c4ccc(O)cc43)c21` [Compound 26, 9-hydroxyfascaplysin], for which the chemical stability entry in data set [12] is listed as “chemically highly unstable”.

Turning to `O=c1ccc2nc3c(cc[n+]4c5ccccc5c(=O)c34)c-2c1` [Compound 27], in data set [13], the solubility result is reported as “extremely poorly soluble”.
